In patent publication US20070191452A1, “USE OF BENZO-HETEROARYL SULFAMIDE DERIVATIVES FOR THE TREATMENT OF PAIN” (priority 2006, published 2007):

Key:
Type in all cases: in vivo
[1] = system: mechanical (tactile) allodynia after L5 nerve ligation; assay: Rat Chung Model of Neuropathic Pain (L5 nerve ligation, von Frey mechanical allodynia)
Protocol: The rat Chung model is an assay used in determining whether a compound is useful for the treatment of neuropathic pain (Kim and Chung, 1994; Chaplan et al., 1994).
In this study, male Sprague Dawley rats (145-165 g; Harlan) were anesthetized and the L5 nerve was isolated and ligated with silk suture material resulting in mechanical allodynia. Two weeks post-ligation, rats were dosed acutely with vehicle (an aqueous solution of 0.5% methylcellulose) or Compound #1 at 15, 30, 60, 120 or 240 mg/kg, p.o. Mechanical (tactile) allodynia was quantified by recording the pressure at which the affected paw withdrew from a graded stimulus (von Frey hairs) at 30 min, 1, 2 and 4 h post-dosing. Data were normalized and results are presented as % MPE (maximum […] effect) of the drug.

[2] = system: Taxol induced mechanical allodynia in the rat hind paw; assay: Taxol-Induced Peripheral Neuropathy (von Frey paw withdrawal threshold); settings: 100 mg/kg, p.o. daily for 12 days with Taxol 2 mg/kg i.p.; day 12; not statistically different from baseline (16.42±2.14 g)
Excerpt: Peripheral neuropatheis are chronic conditions that arise when nerves are damaged by trauma, disease, metabolic insufficiency or by certain drugs and toxins. The sensory disturbances associated with chemotherapeutic agents, such as paclitaxel (Taxol), range from mild tingling to spontaneous burning, typically in the hands and feet. Symptoms become more intense with continued therapy and can lead to weakness, ataxia, numbness and pain. Taxol-induced peripheral neuropathy in rats have therefore been used as a model of peripheral neuropathies in humans.
Male Sprague-Dawley rats (Harlan) were randomly assigned to two treatment groups: vehicle (0.5% hypromellose, p.o.) and Compound #1 (100 mg/kg, p.o). All rats were injected with Taxol (2 mg/kg, i.p.) on days 1, 3, 5 and 7. At the same time, rats received daily oral gavage of vehicle or Compound #1, starting the day of the first Taxol injection and continuing for 12 days.
All animals were acclimated to the allodynia procedure 2-3 days prior to testing allowing the rats to habituate to the testing devices. Rats underwent Von Frey hair testing as a measure of mechanical allodynia at baseline and on days 5 and 12 post-Taxol injection. Tactile sensitivity was measured using calibrated filaments touched to the plantar surfaces of the affected limb. […]

[3] = system: formalin-induced inflammatory-mediated pain response (hind-paw licking); assay: Mouse Formalin Assay; settings: i.p.; for acute response, decrease from control: acute phase
Protocol: The mouse formalin test is an acute and chronic model for testing the ability of a test compound for the treatment of pain.
In the Mouse Formalin Test, 0.5% formalin was injected s.c. into the plantar region of the hind-paw of adult male mice to induce an inflammatory-mediated pain response. Pain was expressed as licking of the injected area in a bi-modal manner—acute and chronic phase. The acute phase occurred immediately and lasted approximately 10-15 min post-injection, representing direct stimulation of pain fibers. Licking behavior resumes approximately 10 mins later (˜20 min post injection) and lasted 10-15 min, representing the chronic phase due to centralized sensitization in dorsal horn neurons and hypothesized to be caused by the release of inflammatory mediators such as cytokines.
Activity in the acute phase of the formalin test is an indicator of acute pain believed to correlate with peripheral pain pathways.

[4] = 107 mg/kg, 15 min prior to formalin injection, p<0.01

NS(=O)(=O)NCc1csc2ccccc12 [Compound #1, N-(benzo[b]thien-3-ylmethyl)-sulfamide]
improvement in the allodynic response (% MPE) ([1]; 240 mg/kg, p.o., at 1 h post-dosing): 80% | ED50 ([1]; Rattus norvegicus, po, at 1 h post-dosing, n=5 rats/dose, read-out: acute oral ED50): 169 mg/kg | time of peak efficacy post-dosing ([1]; p.o., efficacy observed at 30 min, gone by 4 h): 1 h | withdrawal force [2]: 14.32 ± 5.45 g | acute response, decrease from control ([3]; 53 mg/kg, p<0.05): 32% | chronic phase response, decrease from control ([3]; 53 mg/kg, p<0.01): 67% | acute response, decrease from control [3, 4]: 52% | chronic phase response, decrease from control [3, 4]: 88%
